“Also recorded” adds a separate entry of the source.
Key:
Format in all cases: physicochemical
[1] = Fluorescence microscopy of the DPPC monolayer contacted with gaseous fluorocarbon
Source text: Fluorescence microscopy makes it possible to visualize the dissolution of crystalline islets of DPPC molecules when the monolayer is contacted with gaseous PFOB (FIG. 3A).

[2] = Compression isotherm (surface pressure versus molecular area) of a Langmuir DPPC monolayer as pulmonary surfactant model
Protocol: The monolayer of native pulmonary surfactant was modeled by a Langmuir monolayer of DPPC. In this model, the DPPC molecules were spread using a spreading solvent onto the surface of water contained in a trough coated with Teflon®. After evaporation of the solvent, the DPPC molecules were progressively compressed using two mobile Teflon® barriers. The variation of the surface pressure was measured as a function of the compression by a pressure sensor such as a Wilhelmy blade.
Small quantities of perfluorooctyl bromide (PFOB) in liquid form (1-200 μl), contacted with the DPPC monolayer, result in the disappearance of the liquid expanded/liquid condensed phase transition of the phospholipid. […] FIG. 1 compares the compression isotherms of a DPPC monolayer alone and in contact with the fluorocarbon. In absence of fluorocarbon, one notes the presence of a plateau reflecting the coexistence of the expanded liquid state (fluid phase) and the condensed liquid state (crystalline islets). […] The DPPC monolayer is totally fluid.
Placing the Langmuir trough in a close space saturated with PFOB vapour, it is possible to study the interactions between the DPPC monolayer and the gaseous PFOB.

[3] = Grazing incidence X-ray diffraction of the DPPC monolayer; settings: gaseous fluorocarbon, DPPC monolayer compressed at 40 mN·m^−1
Source text: The two diffraction peaks seen in the absence of fluorocarbon are characteristics of the molecular organisation of DPPC in crystalline islets (▪).

[4] = gaseous fluorocarbon, saturated atmosphere

SMILES | crystalline islets of DPPC seen by fluorescence microscopy, course with time ([1]; monolayer compressed at 10 mN·m^−1, 3, 5 and 7 min) | crystalline islets of DPPC seen by fluorescence microscopy ([1]; monolayer compressed at 10 mN·m^−1, after 3 minutes) | crystalline islets of DPPC seen by fluorescence microscopy ([1]; monolayer compressed at 10 mN·m^−1, after 5 minutes) | crystalline islets of DPPC seen by fluorescence microscopy ([1]; monolayer compressed at 10 mN·m^−1, after 7 minutes) | state of the DPPC monolayer ([2]; gaseous fluorocarbon) | plateau reflecting the coexistence of the expanded liquid state (fluid phase) and the condensed liquid state (crystalline islets) in the DPPC compression isotherm [2, 4] | state of the DPPC monolayer ([2]; liquid fluorocarbon) | plateau reflecting the coexistence of the expanded liquid state (fluid phase) and the condensed liquid state (crystalline islets) in the DPPC compression isotherm ([2]; liquid fluorocarbon (1-200 μl) contacted with the DPPC monolayer) | diffraction peaks characteristic of DPPC crystalline islets / crystalline islets [3]
FC(F)(F)C(F)(F)C(F)(F)C(F)(F)C(F)(F)C(F)(F)C(F)(F)C(F)(F)Br [PFOB, 1-bromo-heptadecafluorooctane] | progressively disappear | becomes small | almost completely re-spread | completely disappeared | totally fluid | no longer seen; also recorded: disappears | totally fluid | no longer seen; also recorded: disappeared totally | 
FC(F)(F)C(F)(F)C(F)(F)C(F)(F)C=CC(F)(F)C(F)(F)C(F)(F)C(F)(F)F [Example F-44E, bis(perfluorobutyl)ethene] |  |  |  |  |  | no longer seen; also recorded: disappears |  |  | these peaks have disappeared; also recorded: disappearance of the crystalline islets

— patent US20080019926A1, “Lung Surfactant Supplements” (priority 2004, published 2008)
